Assay results taken from ChEMBL document CHEMBL3421624, “Design and Synthesis of Antitumor Heck-Coupled Sclareol Analogues: Modulation of BH3 Family Members by SS-12 in Autophagy and Apoptotic Cell Death” (J Med Chem, 2015).
Calls of active or inactive are those of the source. The rule behind the calls is not given here.

Assays:
PC-3 [1] = assay: Induction of autophagy in human PC3 cells assessed as increase in punctate EGFP-LC3 pattern in autophagosomes at 100 nM after 24 hrs by fluorescence microscopy; assay type: functional, cell-based
PC-3 [2] = assay: Induction of autophagy in human PC3 cells assessed as increase LC3 intracellular localization at 100 nM after 24 hrs by immunocytochemistry; assay type: functional, cell-based
[3] = Cytotoxicity against human PC3 cells after 48 hrs by MTT assay; assay type: functional, cell-based; details: PC-3, 48 h
A549 = assay: Cytotoxicity against human A549 cells after 48 hrs by MTT assay; assay type: functional, cell-based; details: A549, 48 h
HeLa = assay: Cytotoxicity against human HeLa cells after 48 hrs by MTT assay; assay type: functional, cell-based
PC-3 [4] = assay: Induction of autophagy in human PC3 cells at 100 to 300 nM after 24 hrs by MDC staining based fluorescence microscopy; assay type: functional, cell-based
PC-3 [5] = assay: Induction of autophagy in human PC3 cells at 100 to 300 nM after 24 hrs by acridine orange staining based fluorescence microscopy; assay type: functional
PC-3 [6] = assay: Induction of autophagy in human PC3 cells assessed as increase in punctate EGFP-LC3 pattern in autophagosomes at 300 nM after 24 hrs by fluorescence microscopy; assay type: functional, cell-based
PC-3 [7] = assay: Inhibition of Akt S473 phosphorylation in human PC3 cells at 0.1 to 0.3 uM after 24 hrs by Western blotting method; assay type: cell-based
PC-3 [8] = assay: Inhibition of Akt in human PC3 cells assessed as reduction in mTOR S2448 phosphorylation at 0.1 to 0.3 uM after 24 hrs by Western blotting method; assay type: cell-based
PC-3 [9] = assay: Effect on MAP1LC3 I/II protein expression in human PC3 cells at 0.2 to 0.3 uM after 24 hrs by immunoblotting method; assay type: functional, cell-based
PC-3 [10] = assay: Effect on SQSTM1/P62 protein expression in human PC3 cells at 0.2 to 0.3 uM after 24 hrs by immunoblotting method; assay type: functional, cell-based
PC-3 [11] = assay: Effect on Beclin-1 protein expression in human PC3 cells at 0.2 to 0.3 uM after 24 hrs by immunoblotting method; assay type: functional, cell-based
PC-3 [12] = assay: Induction of apoptosis in human PC3 cells at 100 to 300 nM after 24 hrs; assay type: functional, cell-based
PC-3 [13] = assay: Induction of autophagy in human PC3 cells at 100 to 300 nM after 24 hrs; assay type: functional, cell-based
PC-3 [14] = assay: Induction of apoptosis in human PC3 cells assessed as caspase-3 cleavage at 300 nM after 24 hrs by Western blotting method; assay type: functional, cell-based

CO[C@H]1C[C@@H]2CC[C@@H](C)[C@@](O)(O2)C(=O)C(=O)N2CCCC[C@H]2C(=O)O[C@H]([C@H](C)C[C@@H]2CC[C@@H](O)[C@H](OC)C2)CC(=O)[C@H](C)/C=C(\C)[C@@H](O)[C@@H](OC)C(=O)[C@H](C)C[C@H](C)/C=C/C=C/C=C/1C
Activity (PC-3 [1]): inactive | Activity (PC-3 [2]): inactive

COc1cccc(/C=C/[C@](C)(O)CC[C@@H]2[C@@]3(C)CCCC(C)(C)[C@@H]3CC[C@@]2(C)O)c1OC
IC50 [3]: 2900 nM | IC50 (A549): 3.28 µM | IC50 (HeLa): 3.88 µM

CC1(C)CCC[C@]2(C)[C@@H](CC[C@@](C)(O)/C=C/c3cncc4ccccc34)[C@](C)(O)CC[C@@H]12
IC50 [3]: 3900 nM | IC50 (A549): 45.7 µM | IC50 (HeLa): 46 µM

CC1(C)CCC[C@]2(C)[C@@H](CC[C@@](C)(O)/C=C/c3cccc([N+](=O)[O-])c3)[C@](C)(O)CC[C@@H]12
IC50 [3]: 153 nM | IC50 (A549): 3.4 µM | IC50 (HeLa): 3.38 µM | Activity (PC-3 [4]): Active | Activity (PC-3 [5]): Active

COc1cccc(OC)c1/C=C/[C@](C)(O)CC[C@@H]1[C@@]2(C)CCCC(C)(C)[C@@H]2CC[C@@]1(C)O
IC50 [3]: 4000 nM | IC50 (A549): 42 µM | IC50 (HeLa): 48.2 µM

CC1(C)CCC[C@]2(C)[C@@H](CC[C@@](C)(O)/C=C/c3ccc(Br)cc3)[C@](C)(O)CC[C@@H]12
IC50 [3]: 41300 nM | IC50 (A549): 43.2 µM | IC50 (HeLa): 45.9 µM

CC1(C)CCC[C@]2(C)[C@@H](CC[C@@](C)(O)/C=C/c3ccc(Cl)nc3)[C@](C)(O)CC[C@@H]12
IC50 [3]: 275 nM | IC50 (A549): 3.28 µM | IC50 (HeLa): 3.68 µM

Cc1cccc(C)c1/C=C/[C@](C)(O)CC[C@@H]1[C@@]2(C)CCCC(C)(C)[C@@H]2CC[C@@]1(C)O
IC50 [3]: 278 nM | IC50 (A549): 3.34 µM | IC50 (HeLa): 3.46 µM

CC(C)(C)c1ccc(/C=C/[C@](C)(O)CC[C@@H]2[C@@]3(C)CCCC(C)(C)[C@@H]3CC[C@@]2(C)O)cc1
IC50 [3]: 3800 nM | IC50 (A549): 45 µM | IC50 (HeLa): 48.5 µM

CO/C1=C\C(C)=C\[C@@H](C)[C@@H](O)[C@@H](C)C/C(C)=C/C=C/[C@H](OC)[C@@H]([C@@H](C)[C@@H](O)[C@H](C)[C@@]2(O)C[C@@H](O)[C@H](C)[C@@H](C(C)C)O2)OC1=O
Activity (PC-3 [6]): inactive

Cc1ccc(C)c(/C=C/[C@](C)(O)CC[C@@H]2[C@@]3(C)CCCC(C)(C)[C@@H]3CC[C@@]2(C)O)c1
IC50 [3]: 176 nM | IC50 (A549): 3.32 µM | IC50 (HeLa): 3.38 µM | Activity (PC-3 [4]): Active | Activity (PC-3 [5]): Active

C=C[C@](C)(O)CC[C@@H]1[C@@]2(C)CCCC(C)(C)[C@@H]2CC[C@@]1(C)O [SCLAREOL]
inhibition (PC-3 [7]): Active | inhibition (PC-3 [8]): Active | IC50 [3]: 105 nM | IC50 (A549): 3.21 µM | IC50 (HeLa): 3.35 µM | Activity (PC-3 [5]): <=5% | Activity (PC-3 [9]): inactive | Activity (PC-3 [10]): inactive | Activity (PC-3 [11]): inactive | Activity (PC-3 [12]): inactive | Activity (PC-3 [13]): inactive | Activity (PC-3 [14]): Active

CC1(C)CCC[C@]2(C)[C@@H](CC[C@@](C)(O)/C=C/c3ccc(Oc4ccccc4)cc3)[C@](C)(O)CC[C@@H]12
IC50 [3]: 268 nM | IC50 (A549): 3.2 µM | IC50 (HeLa): 3.48 µM

CC1(C)CCC[C@]2(C)[C@@H](CC[C@@](C)(O)/C=C/c3c4ccccc4c(Br)c4ccccc34)[C@](C)(O)CC[C@@H]12
IC50 [3]: 301 nM | IC50 (A549): 44.9 µM | IC50 (HeLa): 46 µM

CC1(C)CCC[C@]2(C)[C@@H](CC[C@@](C)(O)/C=C/c3ccc(C(=O)O)cc3)[C@](C)(O)CC[C@@H]12
IC50 [3]: 102 nM | IC50 (A549): 44.3 µM | IC50 (HeLa): 45.4 µM | Activity (PC-3 [4]): Active | Activity (PC-3 [5]): Active

Cc1cccc(/C=C/[C@](C)(O)CC[C@@H]2[C@@]3(C)CCCC(C)(C)[C@@H]3CC[C@@]2(C)O)c1C
IC50 [3]: 3500 nM | IC50 (A549): 3.8 µM | IC50 (HeLa): 3.7 µM

CC1(C)CCC[C@]2(C)[C@@H](CC[C@@](C)(O)/C=C/c3ccccc3)[C@](C)(O)CC[C@@H]12
IC50 [3]: 121 nM | IC50 (A549): 3.15 µM | IC50 (HeLa): 3.32 µM | Activity (PC-3 [4]): Active | Activity (PC-3 [5]): Active

CN[C@@H]1C[C@H]2O[C@@](C)([C@@H]1OC)n1c3ccccc3c3c4c(c5c6ccccc6n2c5c31)C(=O)NC4 [STAUROSPORINE]
IC50 [3]: 31 nM
